Legend:
Assay in all cases: relative viability (nuclei count vs DMSO), 5 days (fraction); higher = more cells survive
17-AAG + Lapatinib = compound: C=CCNC1=C2C[C@@H](C)C[C@H](OC)[C@H](O)[C@@H](C)/C=C(\C)[C@H](OC(N)=O)[C@@H](OC)/C=C\C=C(/C)C(=O)NC(=CC1=O)C2=O [17-AAG] + CS(=O)(=O)CCNCc1ccc(-c2ccc3ncnc(Nc4ccc(OCc5cccc(F)c5)c(Cl)c4)c3c2)o1 [Lapatinib] (partner 2 µM)
How it was run: (§1)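 Medians of duplicate plates are given as relative viability. That measure is the nuclei count in treated wells divided by the count in vehicle wells. Counts were taken on 4× images of lung cancer cell lines in 1536-well plates, 5 days after pin-tool dosing the day after seeding with one drug alone or a fixed anchor-drug dose plus five library-drug doses (not always all listed) in √10 steps.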

17-AAG + Bortezomib = compound: C=CCNC1=C2C[C@@H](C)C[C@H](OC)[C@H](O)[C@@H](C)/C=C(\C)[C@H](OC(N)=O)[C@@H](OC)/C=C\C=C(/C)C(=O)NC(=CC1=O)C2=O [17-AAG] + CC(C)C[C@H](NC(=O)[C@H](Cc1ccccc1)NC(=O)c1cnccn1)B(O)O [Bortezomib] (partner 0.002 µM)
How it was run: as §1

17-AAG + Decitabine = compound: C=CCNC1=C2C[C@@H](C)C[C@H](OC)[C@H](O)[C@@H](C)/C=C(\C)[C@H](OC(N)=O)[C@@H](OC)/C=C\C=C(/C)C(=O)NC(=CC1=O)C2=O [17-AAG] + Nc1ncn([C@H]2C[C@H](O)[C@@H](CO)O2)c(=O)n1 [Decitabine] (partner 2 µM)
How it was run: as §1

17-AAG + AZD7762 = compound: C=CCNC1=C2C[C@@H](C)C[C@H](OC)[C@H](O)[C@@H](C)/C=C(\C)[C@H](OC(N)=O)[C@@H](OC)/C=C\C=C(/C)C(=O)NC(=CC1=O)C2=O [17-AAG] + NC(=O)Nc1cc(-c2cccc(F)c2)sc1C(=O)N[C@H]1CCCNC1 [AZD7762] (partner 0.2 µM)
How it was run: as §1

Row | Cell Line | relative viability (17-AAG + Lapatinib; first compound 0.00128 µM) | relative viability (17-AAG + Lapatinib; first compound 0.004048 µM) | relative viability (17-AAG + Lapatinib; first compound 0.0128 µM) | relative viability (17-AAG + Lapatinib; first compound 0.04048 µM) | relative viability (17-AAG + Lapatinib; first compound 0.128 µM) | relative viability (17-AAG + Bortezomib; first compound 0.00128 µM) | relative viability (17-AAG + Bortezomib; first compound 0.004048 µM) | relative viability (17-AAG + Bortezomib; first compound 0.0128 µM) | relative viability (17-AAG + Bortezomib; first compound 0.04048 µM) | relative viability (17-AAG + Bortezomib; first compound 0.128 µM) | relative viability (17-AAG + Decitabine; first compound 0.00128 µM) | relative viability (17-AAG + Decitabine; first compound 0.004048 µM) | relative viability (17-AAG + Decitabine; first compound 0.0128 µM) | relative viability (17-AAG + Decitabine; first compound 0.04048 µM) | relative viability (17-AAG + Decitabine; first compound 0.128 µM) | relative viability (17-AAG + AZD7762; first compound 0.00128 µM) | relative viability (17-AAG + AZD7762; first compound 0.004048 µM) | relative viability (17-AAG + AZD7762; first compound 0.0128 µM) | relative viability (17-AAG + AZD7762; first compound 0.04048 µM) | relative viability (17-AAG + AZD7762; first compound 0.128 µM)
1 | EMC-BAC-2 | 0.948 | 0.948 | 0.907 | 0.777 | 0.16 | 1.15 | 1.11 | 1.13 | 1.01 | 0.209 | 0.98 | 0.939 | 0.692 | 0.31 | 0.219 | 1.17 | 1.15 | 0.735 | 0.598 | 0.287
2 | EPLC-272H | 1.04 | 1.02 | 0.929 | 0.425 | 0.153 | 0.89 | 0.821 | 0.97 | 0.855 | 0.171 | 0.367 | 0.352 | 0.307 | 0.158 | 0.0907 | 0.208 | 0.3 | 0.207 | 0.13 | 0.101
3 | H3255 | 0.296 | 0.338 | 0.275 | 0.235 | 0.175 | 0.864 | 0.722 | 0.46 | 0.237 | 0.205 | 0.788 | 0.566 | 0.488 | 0.231 | 0.198 | 0.876 | 1 | 0.674 | 0.252 | 0.245
4 | HARA | 0.694 | 0.811 | 0.692 | 0.831 | 0.325 | 1.08 | 1.11 | 1.14 | 1.14 | 0.187 | 0.517 | 0.57 | 0.617 | 0.569 | 0.232 | 0.425 | 0.295 | 0.209 | 0.251 | 0.18
5 | HCC-15 | 0.795 | 0.625 | 0.351 | 0.225 | 0.106 | 1.01 | 0.816 | 0.502 | 0.542 | 0.127 | 0.599 | 0.557 | 0.174 | 0.136 | 0.137 | 1.29 | 1.27 | 0.986 | 0.461 | 0.158
6 | HCC-44 | 1.06 | 0.986 | 0.998 | 0.287 | 0.125 | 0.865 | 0.854 | 0.903 | 0.466 | 0.142 | 0.927 | 0.964 | 0.931 | 0.958 | 0.355 | 1 | 1.02 | 1.03 | 0.973 | 0.398
7 | HCC-78 | 1.12 | – | 0.994 | 0.603 | 0.296 | 0.538 | 0.482 | 0.539 | 0.368 | 0.6 | 0.511 | 0.841 | 0.695 | 0.465 | 0.369 | 0.599 | 0.821 | 0.666 | 0.155 | 0.352
8 | HCC-366 | 0.858 | 0.691 | 0.0214 | 0.0204 | 0.0219 | 0.949 | 0.785 | 0.0604 | 0.0267 | 0.0245 | 0.306 | 0.393 | 0.08 | 0.0528 | 0.0434 | 0.281 | 0.402 | 0.045 | 0.0325 | 0.0323
9 | HCC-827 | 0.225 | 0.216 | 0.193 | – | 0.259 | 0.962 | 0.995 | 1.04 | – | 0.849 | 0.279 | 0.363 | 0.308 | – | 0.306 | 0.216 | 0.238 | 0.163 | – | 0.164
10 | HOP-62 | 0.875 | 1.03 | 0.634 | 0.12 | 0.0921 | 0.701 | 0.725 | 0.748 | 0.46 | 0.117 | 0.24 | 0.238 | 0.25 | 0.167 | 0.172 | 0.733 | 0.416 | 0.256 | 0.11 | 0.0928
11 | LC-2-ad | 1.01 | 0.877 | 0.548 | 0.126 | 0.0893 | 0.97 | 1.05 | 0.665 | 0.119 | 0.105 | 0.776 | 0.876 | 0.713 | 0.645 | 0.227 | 0.841 | 0.835 | 0.714 | 0.297 | 0.161
12 | LCLC-97TM1 | 0.903 | 1.12 | 0.647 | 0.405 | 0.0945 | 0.431 | 0.614 | 0.249 | 0.125 | 0.0923 | 0.197 | 0.21 | 0.255 | 0.259 | 0.185 | 0.281 | 0.359 | 0.278 | 0.21 | 0.0815
13 | LOU-NH91 | 0.852 | 0.795 | 0.521 | 0.328 | 0.36 | 0.483 | 0.512 | 0.394 | 0.401 | 0.381 | 0.806 | 0.724 | 0.623 | 0.47 | 0.393 | 0.765 | 0.71 | 0.444 | 0.382 | 0.347
14 | LU99A | 0.885 | 0.965 | 0.323 | 0.288 | 0.141 | 1.06 | 1.05 | 0.672 | 0.445 | 0.119 | 0.917 | 0.915 | 0.863 | 0.749 | 0.213 | 0.372 | 0.284 | 0.115 | 0.179 | 0.074
15 | LXF-289 | 0.907 | 0.874 | 0.694 | 0.449 | 0.152 | 0.99 | 0.994 | 0.815 | 0.478 | 0.108 | 0.4 | 0.473 | 0.355 | 0.297 | 0.19 | 1.09 | 1.1 | 0.617 | 0.151 | 0.0926
16 | NCI-H23 | 0.933 | 0.882 | 0.233 | 0.204 | 0.131 | 0.92 | 0.635 | 0.232 | 0.168 | 0.127 | 0.294 | 0.226 | 0.251 | 0.185 | 0.16 | 0.201 | 0.4 | 0.18 | 0.122 | 0.0996

Source: the supplement of paper PMC10307832
